Experiment [1] has as its target M. burtonii mevalonate kinase (Methanococcoides burtonii, UniProt Q12TI0). In words: Mevalonate kinase coupled spectrophotometric kinetic and inhibition assay. Type of experiment: biochemical. The settings on record: for kcat: 40 nM purified enzyme, varying mevalonate and ATP.
The target in experiment [2] is M. mazei mevalonate kinase (Methanosarcina mazei, UniProt Q8PW39). The experiment is described as above. Type of experiment: biochemical. The following applies: for Vmax / α / kcat / Ka/b: random bireactant system model; for kcat: 80 nM purified enzyme, varying mevalonate and ATP; for Ka/b: Ka(Mev), Kb(ATP).
Chain of M. mazei mevalonate kinase (Q8PW39 entry or part of it): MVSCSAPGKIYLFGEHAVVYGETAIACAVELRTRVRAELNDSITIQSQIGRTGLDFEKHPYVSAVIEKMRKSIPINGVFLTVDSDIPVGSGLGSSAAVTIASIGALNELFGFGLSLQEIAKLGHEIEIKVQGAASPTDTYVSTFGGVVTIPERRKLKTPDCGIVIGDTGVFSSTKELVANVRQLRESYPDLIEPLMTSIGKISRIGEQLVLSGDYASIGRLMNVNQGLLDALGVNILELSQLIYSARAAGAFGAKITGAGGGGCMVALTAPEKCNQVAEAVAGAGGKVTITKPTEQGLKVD
The test system of experiment [3] is engineered E. coli strains. The format is cell-based.
[4] abbreviates: inhibitor added at various concentrations to the reaction mix, read-out: Ki.

Read-outs that look alike come from different tables or passages of the source. Where only a bound is given, the exact number is not on record here.

Chain of M. burtonii mevalonate kinase (Q12TI0 entry or part of it): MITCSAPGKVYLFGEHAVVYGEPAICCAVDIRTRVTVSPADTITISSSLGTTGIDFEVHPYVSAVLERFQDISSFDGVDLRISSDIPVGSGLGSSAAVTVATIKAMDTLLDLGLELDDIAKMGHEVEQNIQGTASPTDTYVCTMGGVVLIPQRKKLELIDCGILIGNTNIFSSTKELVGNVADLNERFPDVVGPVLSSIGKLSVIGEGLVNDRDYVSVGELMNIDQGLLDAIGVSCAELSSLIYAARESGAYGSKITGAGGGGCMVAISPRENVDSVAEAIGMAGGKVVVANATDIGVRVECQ

The term Ki denotes a measure of affinity in units of concentration, obtained from inhibition or displacement. On to `CC(C)=CCC/C(C)=C/COP(=O)(O)OP(=O)(O)O` [GPP, geranyl pyrophosphate, reference compound], for which the Ki in experiment [1] (setting [4]) and in experiment [2] (setting [4]) was > 5 mM in each case.

Regarding `C[C@@](O)(CCOP(=O)(O)OP(=O)(O)O)CC(=O)O` [MVPP, reference compound], the Ki in experiment [1] (setting [4]) was > 5 mM; in experiment [2] (setting [4]) it was > 1 mM.

In the case of `C=C(C)CCO[P@@](=O)(O)OP(=O)(O)O` [IPP, isopentenyl pyrophosphate, reference compound], the Ki in experiment [1] and in experiment [2] was > 5 mM in each case.

The Vmax is the rate approached at saturating substrate. Usually kcat stands for the number of substrate molecules converted per active site and unit of time at saturation. In the case of `Nc1ncnc2c1ncn2[C@@H]1O[C@H](COP(=O)(O)OP(=O)(O)OP(=O)(O)O)[C@@H](O)[C@H]1O` [ATP, Adenosine triphosphate], in experiment [1], the Ka/b stood at 212 µM. Besides, in experiment [1] (random bireactant system model), the Vmax was 2.97 µM/s, the α stood at 3.74 and the turnover number (kcat) is 74.3 s⁻¹. Also, in experiment [2], the Vmax was found to be 2.14 µM/s, the α worked out at 1.62, the kcat came out at 26.8 s⁻¹ and the Ka/b stood at 460 µM.

Consider `CC(O)(CCO)CC(=O)O` (stereo not shown) [Mevalonate, mevalonate], for which, in experiment [1] (random bireactant system model), the Vmax is 1.78 µM/s, the α is listed as 0.52 and the kcat is 44.4 s⁻¹. This molecule gave a Ka/b in experiment [1] (random bireactant system model, Ka(Mev), Kb(ATP)) of 391 µM. Moreover, in experiment [2], the maximal velocity (Vmax) was 1.46 µM/s, the α is listed as 0.23, the catalytic constant (kcat) turned out to be 18.3 s⁻¹ and the Ka/b came out at 397 µM. Besides, the “growth inhibition by mevalonate” value in experiment [3] (strain MCM2131, mevalonate between 0 and 16 mM) is “not inhibited”. For the same molecule, the “growth inhibition by mevalonate” value in experiment [3] (strains MCM2125, MCM2127 and MCM2130, mevalonate 0-16 mM) is listed as “not inhibited”.

Take `CC(O)(CCOP(=O)(O)O)CC(=O)O` (stereo not shown) [MVP, reference compound]: the Ki in experiment [1] (setting [4]) and in experiment [2] (setting [4]) was > 3 mM throughout.

Regarding `CC(C)=CCOP(=O)(O)OP(=O)(O)O` [DMAPP, dimethylallyl diphosphate, reference compound], the inhibitory constant (Ki) in experiment [1] and in experiment [2] was > 5 mM each time.

(Values after patent publication US10975394B2, “Recombinant microorganisms for enhanced production of mevalonate, isoprene, and isoprenoids” (Danisco US Inc., priority 2011, dated 2021).)
